Test results from US20220296590A1, “STEREOISOMERS OF THE COMPOUND 3-(BENZO[D][1,3]DIOXOL-5-YL)-7-(1-HYDROXYPROPAN-2-YL)-1-(1H-INDOL-3-YL)-6,7-DIHYDRO-3H-OXAZOL[3,4-A]PYRAZINE-5,8-DIONE AND USE THEREOF AS AN ANTITUMOR AGENT AND PHOSPHODIESTERASE ENZYME INHIBITOR” (BIOLAB SANUS FARMACEUTICA LTDA, priority 2019, published 2022).

Target: T1, PDE5A1 enzyme (Homo sapiens, UniProt O76074)
T1 construct: purchased BPS Bioscience 60350
Test: In vitro inhibition of human phosphodiesterase enzyme 5 (BPS Bioscience PDE5A1 assay kit, fluorescence polarization)
Assay type: biochemical
Settings: read-out: % of Inhibition (PDE5A1)
Description: The evaluation of the compound is studied using BPS Bioscience enzyme assay kit (catalogue 60350). The PDE5A1 Assay kit is designed for identification of PDE5A1 inhibitors using fluorescence polarization. The assay is based on the binding of a fluorescent nucleotide monophosphate generated by PDE5A1 enzyme to the binding agent.
In this methodology only two simple steps on a microtiter plate are required for PDE5A1 reactions. First, the fluorescently labeled cGMP is incubated with PDE5A1 for 1 hour. Second, the binding agent is added to the reaction mixture to produce a change in fluorescent polarization that can then be measured using a fluorescence reader equipped for the measurement of fluorescence polarization.
For the assay the storage reagent FAM-Cyclic-3′, 5′-GMP (20 μM) is diluted with PDE assay buffer to achieve the solution with a […] concentration; the PDE5A1 enzyme is thawed and diluted with the PDE buffer obtaining a PDE5A1 solution at 10 pg/mL.
The assay compounds are diluted with DMSO 100% (v/v) at a concentration of 1000 μM and subsequently diluted in a Sodium chloride 0.9% solution to obtain a curve of concentrations of interest for the assay. The compounds are diluted in concentrations of: 10 nM, 30 nM, 50 nM, 100 nM, 300 nM, 500 nM, 1 μM, 3 μM, 5 μM (DMSO 10% v/v).
The study is comprised of groups: (i) substrate control; (ii) positive control (KIT); (iii) samples in several concentrations; (iv) tadalafil (comparative control). Each parameter (group) is triple labeled.
For the 4 groups there is added, to each microplate well, […] of the FAM-Cyclic-3′ reagent, 5′-GMP (200 μM).
To the substrate control group there is added, to each well, […] of vehicle (DMSO 10% v/v) and […] PDE Buffer.
To the positive control group there is added, to each well, […] of vehicle (DMSO 10% v/v).
To the tadalafil group: there is added […] of the solution in the concentrations of interest.
To the test group there is added […] of the sample solution (test compound)
OBSERVATION: the parameters tested are in triplicate.
To begin the reaction, add […] of the PDE5A1 enzyme (diluted as described above) to the microplate wells designated as Positive Control and Samples (test and tadalafil), and incubate the microplate, for 1 hour, at a temperature of 25° C.
After the incubation period, the reaction is interrupted by the addition, in all the wells, of […] of the binding agent solution and the microplate is incubated for 30 minutes, under light stirring, at room temperature. The reading of the microplate is carried out in Polarized Fluorescence (475-495 nm—excitation and 518-538 nm—emission detection) 500 nanoseconds integration time.

Structure (SMILES): CN1CC(=O)N2[C@H](c3ccc4c(c3)OCO4)c3[nH]c4ccccc4c3C[C@@H]2C1=O [Tadalafyl, tadalafil, reference compound]
- inhibition at 5 µM: 96 ± 2%
